The target of the assay is T1, human 20S proteasome (Homo sapiens, UniProt P28072+P28074+Q99436).
T1 construct: gene PSMB6; native 20S core particle from human erythrocytes (commercial), 28 subunits of 14 types, lysine-biotinylated, on streptavidin beads
Put plainly: pull-down on biotinylated proteasome beads, LC-MS/MS of eluate. To be noted: 20 uM anthricin, 250 pmol proteasome, 30 min, room temperature, D-PBS with 0.1 % BSA; binding site not mapped experimentally.

The record followed here is publication PMC11462260, “Anthricin-induced hyperactive proteasome and its molecular mechanism” (Biochemistry and Biophysics Reports, 2024).

Structures are written as SMILES.

For the compound `COc1cc([C@@H]2c3cc4c(cc3C[C@H]3COC(=O)[C@@H]32)OCO4)cc(OC)c1OC` [anthricin], the “pull-down on biotinylated proteasome beads, LC-MS/MS of eluate” value is “When anthricin was mixed with the proteasome-immobilized beads, a clear peak corresponding to anthricin was detected”.
